Structures are written as SMILES.

For orientation: IC50 means the concentration that gives 50% inhibition. A high value points to a need for much substance.

For this assay, the system named is Influenza A virus. As to the kind of experiment: Antiviral activity against Influenza A virus (A/Memphis/1/71(H3N2)) in MDCK cells after 16 hrs by focus forming assay. It is filed as functional, organism-based, Influenza A virus (A/Memphis/1/1971(H3N2)).

`O=C(O[C@@H]1Cc2ccccc2O[C@@H]1c1cc(O)c(O)c(O)c1)c1cc(O)c(O)c(O)c1` gave an IC50 of 11.9 µM.
For `O=C(O[C@@H]1Cc2c(O)cc(O)cc2O[C@@H]1c1cc(O)c(O)c(O)c1)c1cc(O)c(O)c(O)c1` [EPIGALOCATECHIN GALLATE] the value was 41.2 µM.

Source of the values: ChEMBL document CHEMBL1144651, “Concise synthesis of dideoxy-epigallocatechin gallate (DO-EGCG) and evaluation of its anti-influenza virus activity” (Bioorg Med Chem Lett, 2007).
